Experimental data: US20260097091A1, “ADMINISTRATION OF GLUTATHIONE TRISULFIDE TO AMELIORATE PERIPHERAL NEUROPATHY” (The General Hospital Corporation, priority 2022, published 2026)

Legend:
Assay type in all cases: in vivo, mice (C57BL/6J)
[1] = system: sciatic nerve; assay: transmission electron microscopy of sciatic nerve (unmyelinated neurons, mitochondria); settings: for median area of mitochondria in unmyelinated neuron: sciatic nerve at 4 weeks, control 0.036
Protocol: Paclitaxel (Sigma-Aldrich) was dissolved with ethanol and cremophor (1:1) and diluted with normal saline (1:4). Peripheral neuropathy was induced in mice by intraperitoneal (i.p.) administration of 4 mg/kg paclitaxel every other day for a total of 4 injections (cumulative dose of 16 mg/kg), according to a previously described protocol. A stable, crystallized form of GSSSG was produced and provided by Kyowa Hakko Bio CO., LTD. GSSSG was pulverized and mixed in 0.5% methylcellulose. To evaluate the therapeutic effects of GSSSG in a model of PIPN, mice were randomly divided into three groups of 6. Mice were treated with: 1) paclitaxel alone; 2) paclitaxel and GSSSG; 3) or vehicle alone (control). Mice in groups 1 and 2 received paclitaxel as described above, while mice in the control group received the same volume of vehicle. The first dose of GSSSG was given within 1 hour after the first PTX injection. Treatment was administered as oral gavage for 28 days with GSSSG at 50 mg/kg/day (group 2) or 0.5% methylcellulose (groups 1 and 3). The dose of GSSSG was determined based on pilot studies. To determine the effect of GSSSG on the development of PIPN, behavioral tests to assess allodynia and hyperalgesia were conducted on all mice on days-1 (baseline), 7, 14, 21, and 28 after paclitaxel administration. Behavioral tests were performed by an investigator who was blinded to the treatment groups, as described in the next section. To evaluate unmyelinated neurons and mitochondria, we examined neurons in sciatic nerve by a transmission electron microscope. Resin-embedded nerve blocks using the same method above were sectioned at 50 nm by an ultramicrotome. Sections were examined with an FEI Morgagni transmission electron microscope. Low (×2200) and high (×11000) magnification of images were captured with an AMT 2K charge-coupled device camera (Advanced Microscopy Techniques, Woburn, MA, USA). Unmyelinated neurons were quantified in 9 low magnified images per group (3 mice per group). The percentage of unmyelinated neurons was calculated by dividing unmyelinated neurons by the total number of neurons. The cross-sectional area of mitochondria (μm^2) in unmyelinated neurons was quantified in 18 to 20 high magnified images per group (3 mice per group). In total, 80 to 100 mitochondrion per group were evaluated. Quantification was conducted by a blinded examiner, and the images were evaluated by a pathologist (A S-R) blinded to the identity of samples.

[2] = system: mouse model of PIPN; assay: von Frey test of mechanical allodynia in mouse model of paclitaxel-induced peripheral neuropathy
Description: (§1) All animal protocols were approved by the Massachusetts General Hospital Institutional Animal Care and Use Committee. Animals were cared for in accordance with the guidelines established by the NIH and the International Association for the Study of Pain [16]. Male C57BL/6J mice (6-7 weeks old) were purchased from the Jackson Laboratory (Bar Harbor, ME, USA). The mice were housed in a 12-hour shift light-control environment from 7 am to […] with ad libitum access to food and water in our animal facility until the time of experiments.
(§2) Paclitaxel (Sigma-Aldrich) was dissolved with ethanol and cremophor (1:1) and diluted with normal saline (1:4). Peripheral neuropathy was induced in mice by intraperitoneal (i.p.) administration of 4 mg/kg paclitaxel every other day for a total of 4 injections (cumulative dose of 16 mg/kg), according to a previously described protocol. A stable, crystallized form of GSSSG was produced and provided by Kyowa Hakko Bio CO., LTD. GSSSG was pulverized and mixed in 0.5% methylcellulose. […] The dose of GSSSG was determined based on pilot studies. […]
Mechanical withdrawal thresholds were measured by the manual von Frey filament test to assess mechanical allodynia. […] The 50% threshold of a paw withdrawal response was calculated by the Up-down Reader based on the up and down method. […]

[3] = system: mouse model of PIPN; assay: hot plate test of thermal hyperalgesia in mouse model of PIPN
Description: as §1
as §2, with “LTD.” for “LTD. GSSSG was pulverized and mixed in 0.5% methylcellulose.”
To assess hyperalgesia, the heat threshold was determined by the hot plate test. […] The test was repeated 2 times after 5 minutes interval by a blinded examiner, and the average time was calculated. The ratio of change from the baseline was calculated from the difference of the latency response time from the baseline divided by the baseline time. […]

[4] = paclitaxel alone, 4 weeks, vs control mice

median area of mitochondria in unmyelinated neuron ([1]; paclitaxel alone) [μm^2] | thermal hyperalgesia (hot plate test) ([3]; paclitaxel 4 mg/kg i.p. every other day, 4 injections, 4 weeks, vs control) | Compound | cross-sectional area of mitochondria in unmyelinated sciatic neurons [1, 4] | ratio of unmyelinated neurons to total neurons in sciatic nerve [1, 4] | paw withdrawal threshold (von Frey test) ([2]; paclitaxel 4 mg/kg i.p. every other day, 4 injections, week 1 through week 4, vs control mice) | mitochondrial swelling in axons of unmyelinated neurons ([1]; paclitaxel and GSSSG 50 mg/kg/day oral, 4 weeks) | ratio of unmyelinated neurons to total neurons in sciatic nerve ([1]; paclitaxel and GSSSG 50 mg/kg/day oral, 4 weeks, vs paclitaxel alone) | median area of mitochondria in unmyelinated neuron ([1]; paclitaxel with GSSSG 50 mg/kg/day oral) [μm^2] | mechanical allodynia (von Frey test) ([2]; GSSSG 50 mg/kg/day oral for 28 days in paclitaxel-treated mice, vs paclitaxel alone) | threshold for thermal hyperalgesia (hot plate test) ([3]; GSSSG 50 mg/kg/day oral in paclitaxel-treated mice)
0.057 | induced thermal hyperalgesia | CC(=O)O[C@H]1C(=O)[C@@]2(C)[C@H]([C@H](OC(=O)c3ccccc3)[C@]3(O)C[C@H](OC(=O)[C@H](O)[C@@H](NC(=O)c4ccccc4)c4ccccc4)C(C)=C1C3(C)C)[C@]1(OC(C)=O)CO[C@@H]1C[C@@H]2O [paclitaxel, Paclitaxel, reference compound] | significantly larger than those in control mice | tended to decrease unmyelinated neurons compared to control mice | significantly lower paw withdrawal threshold than control mice | – | – | – | – | –
– | – | N[C@@H](CCC(=O)N[C@@H](CSSSC[C@H](NC(=O)CC[C@H](N)C(=O)O)C(=O)NCC(=O)O)C(=O)NCC(=O)O)C(=O)O [GSSSG, glutathione trisulfide] | – | – | – | Prevented Mitochondrial Swelling | larger ratio of unmyelinated neurons | 0.041 | mitigated mechanical allodynia over the experimental period | not altered
